The test addresses T1, human 5-HT4(b) receptor (Homo sapiens, UniProt Q13639).
T1 construct: overexpressing the full-length human 5-HT4(b) receptor with an N-terminal FLAG tag; FLAG (N); host or cells: CHO-K1
The experiment in a line: 5-HT4(b) agonist assay (cAMP accumulation). In kind it is cell-based. The following applies: CHO-K1 cells overexpressing full-length human 5-HT4(b) receptor; cAMP accumulation after 30 minutes at room temperature; 1 μM 5-HT as 100% activity. As to the method:
One may determine the activity of the compounds of Formula 1 using a variety of methods, including in vitro and in vivo methods. The ability of the example compounds to activate the 5-HT4(b) receptor may be determined using the following assay.
Chinese hamster ovary (CHO-K1) cells overexpressing the full-length human 5-HT4(b) receptor with an N-terminal FLAG tag (Multispan Inc, Hayward, CA) are cultured per the manufacturer's protocol in 1:1 DMEM/F12 (Thermo Fisher, Waltham, MA) with 10% fetal bovine serum (GE Healthcare, Pittsburgh, PA) and 10 μg/mL puromycin (Thermo Fisher, Waltham, MA), and stored in frozen aliquots to be used as assay ready cells. On the day of the assay, cells are removed from frozen storage, washed two times in 1× Kreb's Ringer Buffer (Zenbio, Research Triangle Park, NC), and re-suspended to a concentration of 4×10^6 cells/mL in 1× Kreb's Ringer Buffer. Test compound (50 nL) in 100% DMSO is acoustically dispensed in low volume, white, 384-well polypropylene plates (Corning, Tewksbury, MA), followed by the addition of 4×10^4 cells per well in a total volume of 10 μL. Cells are incubated with test compound for 30 minutes at room temperature in the dark, and cAMP accumulation is measured using the Cisbio HiRange cAMP assay kit (Bedford, MA) per the manufacturer's protocol. Anti-cAMP antibody and d2-cAMP tracer reagents diluted in lysis/detection buffer are incubated in the dark for 1 hour, and results are measured on a Pherastar plate reader (BMG Labtech, Ortenberg, Germany). Data are normalized using 1 μM 5-HT (Sigma Aldrich, St. Louis, MO) as 100% activity, and DMSO alone as 0% activity.
The ability of the example compounds to activate the 5-HT4(b) receptor was evaluated using the assay described in the Biological Activity section. Table 1, below, lists EC50 from the 5-HT4(b) agonist assay for each of the example compounds, where smaller EC50 values represent higher potency.
T1 sequence (Q13639 whole entry): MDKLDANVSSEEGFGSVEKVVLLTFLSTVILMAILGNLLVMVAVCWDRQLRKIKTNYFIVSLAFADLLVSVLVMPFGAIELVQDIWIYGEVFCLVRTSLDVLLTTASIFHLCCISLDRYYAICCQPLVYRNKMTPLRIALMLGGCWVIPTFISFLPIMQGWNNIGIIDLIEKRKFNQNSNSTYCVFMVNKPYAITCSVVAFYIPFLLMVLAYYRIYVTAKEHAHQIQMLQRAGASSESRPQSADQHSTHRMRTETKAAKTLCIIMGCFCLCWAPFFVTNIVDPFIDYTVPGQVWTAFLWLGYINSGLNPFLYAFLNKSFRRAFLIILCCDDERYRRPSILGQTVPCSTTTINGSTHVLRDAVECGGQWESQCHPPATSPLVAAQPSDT
In general, EC50 refers to the concentration at which the effect is half-maximal. For the compound `COc1cc(N)c(Cl)cc1C(=O)N[C@@H]1CCN(CCCCCC(=O)NCCCCCCCC(=O)N(CCCN(C)C)CCS(=O)(=O)O)C[C@@H]1OC` [Example 27, 2-(8-(6-((3S,4R)-4-(4-amino-5-chloro-2-methoxybenzamido)methoxypiperidin-1-yl)hexanamido)-N-(3-(dimethylamino)propyl)octanamido)ethane-1-sulfonic acid], a half-maximal effect (EC50) was put at 30.3 nM. With `Nc1c(Cl)cc(C(=O)NC2CCN(CCCCCC(=O)N[C@@H]3CCCN(CCCCCCCC(=O)NC[C@H](O)[C@@H](O)[C@H](O)[C@H](O)CO)C3)CC2)c2c1CCO2` [Example 28, 4-amino-5-chloro-N-(1-(6-oxo-6-(((R)-1-(8-oxo-8-(((2S,3R,4R,5R)-2,3,4,5,6-pentahydroxyhexyl)amino)octyl)piperidin-3-yl)amino)hexyl)piperidin-4-yl)-2,3-dihydrobenzofuran-7-carboxamide], the 50% effective concentration (EC50) came to 3.8 nM. The same measure for `Nc1c(Cl)cc(C(=O)NC2CCN(CCCCCC(=O)N[C@@H]3CCCN(CCCCCC(=O)NC[C@H](O)[C@@H](O)[C@H](O)[C@H](O)CO)C3)CC2)c2c1CCO2` [Example 29, 4-amino-5-chloro-N-(1-(6-oxo-6-(((R)-1-(6-oxo-6-(((2S,3R,4R,5R)-2,3,4,5,6-pentahydroxyhexyl)amino)hexyl)piperidin-3-yl)amino)hexyl)piperidin-4-yl)-2,3-dihydrobenzofuran-7-carboxamide]: 4.4 nM; for `Nc1c(Cl)cc(C(=O)NC2CCN(CCCCCC(=O)NC3CCN(CCCCCCCC(=O)NC[C@H](O)[C@@H](O)[C@H](O)[C@H](O)CO)CC3)CC2)c2c1CCO2` [Example 30, 4-amino-5-chloro-N-(1-(6-oxo-6-((1-(8-oxo-8-(((2S,3R,4R,5R)-2,3,4,5,6-pentahydroxyhexyl)amino)octyl)piperidin-4-yl)amino)hexyl)piperidin-4-yl)-2,3-dihydrobenzofuran-7-carboxamide]: 3.7 nM.

With `Nc1c(Cl)cc(C(=O)NC2CCN(CCCCCC(=O)NC3CCN(CCCCCC(=O)NC[C@H](O)[C@@H](O)[C@H](O)[C@H](O)CO)CC3)CC2)c2c1CCO2` [Example 31, 4-amino-5-chloro-N-(1-(6-oxo-6-((1-(6-oxo-6-(((2S,3R,4R,5R)-2,3,4,5,6-pentahydroxyhexyl)amino)hexyl)piperidin-4-yl)amino)hexyl)piperidin-4-yl)-2,3-dihydrobenzofuran-7-carboxamide], the EC50 stood at 6.1 nM.

`Nc1c(Cl)cc(C(=O)NC2CCN(CCCCCC(=O)NCCCCCCCC(=O)NC[C@H](O)[C@@H](O)[C@H](O)[C@H](O)CO)CC2)c2c1CCO2` [Example 32, 4-amino-5-chloro-N-(1-(6-oxo-6-((8-oxo-8-(((2S,3R,4R,5R)-2,3,4,5,6-pentahydroxyhexyl)amino)octyl)amino)hexyl)piperidin-4-yl)-2,3-dihydrobenzofuran-7-carboxamide] gave an EC50 of 23 nM. The result for `Nc1c(Cl)cc(C(=O)NC2CCN(CCCCCC(=O)NCCCCCC(=O)NC[C@H](O)[C@@H](O)[C@H](O)[C@H](O)CO)CC2)c2c1CCO2` [Example 33, 4-amino-5-chloro-N-(1-(6-oxo-6-((6-oxo-6-(((2S,3R,4R,5R)-2,3,4,5,6-pentahydroxyhexyl)amino)hexyl)amino)hexyl)piperidin-4-yl)-2,3-dihydrobenzofuran-7-carboxamide] reads 12.6 nM; that for `Nc1c(Cl)cc(C(=O)NC2CCN(CCCCCC(=O)NCCCC(=O)NC[C@H](O)[C@@H](O)[C@H](O)[C@H](O)CO)CC2)c2c1CCO2` [Example 34, 4-amino-5-chloro-N-(1-(6-oxo-6-((4-oxo-4-(((2S,3R,4R,5R)-2,3,4,5,6-pentahydroxyhexyl)amino)butyl)amino)hexyl)piperidin-4-yl)-2,3-dihydrobenzofuran-7-carboxamide], 15.3 nM. `Nc1c(Cl)cc(C(=O)NCC2CCN(CC3CCN(CCCCCCCCC(=O)NC[C@H](O)[C@@H](O)[C@H](O)[C@H](O)CO)CC3)CC2)c2c1CCO2` [Example 35, 4-amino-5-chloro-N-((1-((1-(9-oxo-9-(((2S,3R,4R,5R)-2,3,4,5,6-pentahydroxyhexyl)amino)nonyl)piperidin-4-yl)methyl)piperidin-4-yl)methyl)-2,3-dihydrobenzofuran-7-carboxamide] gave an EC50 of 2.6 nM.

Compound `Nc1c(Cl)cc(C(=O)NCC2CCN(CC3CCN(CCCCCCCCCCC(=O)NC[C@H](O)[C@@H](O)[C@H](O)[C@H](O)CO)CC3)CC2)c2c1CCO2` [Example 36, 4-amino-5-chloro-N-((1-((1-(11-oxo-11-(((2S,3R,4R,5R)-2,3,4,5,6-pentahydroxyhexyl)amino)undecyl)piperidin-4-yl)methyl)piperidin-4-yl)methyl)-2,3-dihydrobenzofuran-7-carboxamide] displayed a 50% effective concentration (EC50) of 2.5 nM.

Consider `Nc1c(Cl)cc(C(=O)NCC2CCN(CC3CCN(CCCCCCC(=O)NC[C@H](O)[C@@H](O)[C@H](O)[C@H](O)CO)CC3)CC2)c2c1CCO2` [Example 37, 4-amino-5-chloro-N-((1-((1-(7-oxo-7-(((2S,3R,4R,5R)-2,3,4,5,6-pentahydroxyhexyl)amino)heptyl)piperidin-4-yl)methyl)piperidin-4-yl)methyl)-2,3-dihydrobenzofuran-7-carboxamide], for which the response was half-maximal at 2 nM (EC50). Compound `Nc1c(Cl)cc(C(=O)NCC2CCN(CC3CCN(C(=O)CCCCCCCCCCC(=O)NC[C@H](O)[C@@H](O)[C@H](O)[C@H](O)CO)CC3)CC2)c2c1CCO2` [Example 38, 4-amino-5-chloro-N-((1-((1-(12-oxo-12-(((2S,3R,4R,5R)-2,3,4,5,6-pentahydroxyhexyl)amino)dodecanoyl)piperidin-4-yl)methyl)piperidin-4-yl)methyl)-2,3-dihydrobenzofuran-7-carboxamide] displayed an EC50 of 1.2 nM. The same measure for `Nc1c(Cl)cc(C(=O)NCC2CCN(CC3CCN(C(=O)CCCCCCCCC(=O)NC[C@H](O)[C@@H](O)[C@H](O)[C@H](O)CO)CC3)CC2)c2c1CCO2` [Example 39, 4-amino-5-chloro-N-((1-((1-(10-oxo-10-(((2S,3R,4R,5R)-2,3,4,5,6-pentahydroxyhexyl)amino)decanoyl)piperidin-4-yl)methyl)piperidin-4-yl)methyl)-2,3-dihydrobenzofuran-7-carboxamide]: 1.2 nM; for `Nc1c(Cl)cc(C(=O)NCC2CCN(CC3CCN(C(=O)CCCCCCC(=O)NC[C@H](O)[C@@H](O)[C@H](O)[C@H](O)CO)CC3)CC2)c2c1CCO2` [Example 40, 4-amino-5-chloro-N-((1-((1-(8-oxo-8-(((2S,3R,4R,5R)-2,3,4,5,6-pentahydroxyhexyl)amino)octanoyl)piperidin-4-yl)methyl)piperidin-4-yl)methyl)-2,3-dihydrobenzofuran-7-carboxamide]: 2 nM; for `CO[C@H]1CN(CC2CCN(C(=O)CCCCCCCC(=O)NC[C@H](O)[C@@H](O)[C@H](O)[C@H](O)CO)CC2)CC[C@H]1NC(=O)c1cc(Cl)c(N)c2c1OCC2` [Example 41, 4-amino-5-chloro-N-((3S,4R)-3-methoxy-1-((1-(9-oxo-9-(((2S,3R,4R,5R)-2,3,4,5,6-pentahydroxyhexyl)amino)nonanoyl)piperidin-4-yl)methyl)piperidin-4-yl)-2,3-dihydrobenzofuran-7-carboxamide]: 1.2 nM. The same measure for `CO[C@H]1CN(CC2CCN(C(=O)CCCCCC(=O)NC[C@H](O)[C@@H](O)[C@H](O)[C@H](O)CO)CC2)CC[C@H]1NC(=O)c1cc(Cl)c(N)c2c1OCC2` [Example 42, 4-amino-5-chloro-N-((3S,4R)-3-methoxy-1-((1-(7-oxo-7-(((2S,3R,4R,5R)-2,3,4,5,6-pentahydroxyhexyl)amino)heptanoyl)piperidin-4-yl)methyl)piperidin-4-yl)-2,3-dihydrobenzofuran-7-carboxamide]: 1.4 nM; for `CO[C@H]1CN(CC2CCN(C(=O)CCCC(=O)NC[C@H](O)[C@@H](O)[C@H](O)[C@H](O)CO)CC2)CC[C@H]1NC(=O)c1cc(Cl)c(N)c2c1OCC2` [Example 43, 4-amino-5-chloro-N-((3S,4R)-3-methoxy-1-((1-(5-oxo-5-(((2S,3R,4R,5R)-2,3,4,5,6-pentahydroxyhexyl)amino)pentanoyl)piperidin-4-yl)methyl)piperidin-4-yl)-2,3-dihydrobenzofuran-7-carboxamide]: 1.7 nM.

Consider `CO[C@H]1CN(CCCCCC(=O)NCCCCCCCC(=O)NC[C@H](O)[C@@H](O)[C@H](O)[C@H](O)CO)CC[C@H]1NC(=O)c1cc(Cl)c(N)c2c1OCC2` [Example 44, 4-amino-5-chloro-N-((3S,4R)-3-methoxy-1-(6-oxo-6-((8-oxo-8-(((2S,3R,4R,5R)-2,3,4,5,6-pentahydroxyhexyl)amino)octyl)amino)hexyl)piperidin-4-yl)-2,3-dihydrobenzofuran-7-carboxamide], for which the EC50 came to 3.1 nM.

(Values after patent US12653815B2, “Luminally-acting N-(piperidin-4-yl)benzamide derivatives” (Takeda Pharmaceutical Company Limited, priority 2020, dated 2026).)
